Measured values as given in US20220146526A1, “METHOD FOR EVALUATING SAMPLE, ANALYSIS METHOD, METHOD FOR DETECTING DEGRADED SAMPLE, MARKER FOR DETECTING DEGRADED BLOOD PLASMA SAMPLE, AND MARKER FOR DETECTING DEGRADED SERUM SAMPLE” (SHIMADZU CORPORATION, priority 2019, published 2022).

Experiments:
Assay type in all cases: physicochemical, human
[1] = LC/MS of blood plasma sample: time from blood collection to centrifugation (Table D); settings: for Increase or decrease: detection intensity, after 12 hours vs 15 minutes; for Increase or decrease / Rate of increase or decrease: blood collection to centrifugation; for Rate of increase or decrease (second value, decrease) / Rate of increase or decrease (first value, increase): different from individual to individual, relative to 1 at 15 minutes, collection to centrifugation; for Rate of increase or decrease (second value, decrease): individuals with decrease; for Rate of increase or decrease (second value, decrease) / Rate of increase or decrease (first value, increase) / Rate of increase or decrease: after 12 hours; for Rate of increase or decrease (first value, increase): individuals with increase; for Rate of increase or decrease: detection intensity relative to 1 at 15 minutes
Procedure: (§1) At room temperature, 5 mL of blood from a healthy subject was taken into a blood-collecting vessel containing EDTA, and the blood-collecting vessel was inverted for mixing, then cooled, and allowed to stand at 4° C. Here, in order to investigate how the detection intensity of molecules contained in the sample was affected in a case where the time to cooling was set to 5 minutes or more as compared to that in a case where the time to cooling was set to 1 minute or less, preparations were performed under both the former condition and the latter condition. After standing, the blood sample was subjected to centrifugation under a condition of 4° C., 3000 rpm, and 15 minutes. […] After centrifugation, the blood-collecting vessel was left to stand at room temperature for 30 minutes, and the blood plasma was isolated during this 30 minutes. The obtained blood plasma sample was frozen and stored. Here, in order to investigate how the detection intensity of molecules contained in the sample was affected in cases where freezing and thawing was performed 4 times, 6 times, and 10 times after freezing as compared to that in a case where freezing and thawing was performed 2 times after freezing, freezing and thawing was performed under the respective conditions of 2, 4, 6, and 10 times.
(§2) Frozen blood plasma samples and serum samples were subjected to GC/MS or LC/MS. In GC/MS, the blood plasma samples and serum samples were subjected to methoxymation and trimethylsilylation and then introduced to GC-MS.
(§3) Analysis column: Discovery HS F5-3 (inner diameter of 2.1 mm, length of 150 mm, film thickness of 3 μm) (Sigma-Aldrich)
(§4) Column temperature: 40° C.
(§5) (A) 0.1% formic acid (dissolved in water)
(§6) (B) 0.1% formic acid (dissolved in acetonitrile)
(§7) Flow velocity: 0.25 mL/min
(§8) Ionization method: electrospray
(§9) Temperature: • Desolvation Line (DL) temperature: 250° C. • Heat block temperature: 400° C. • Interface temperature: 300° C.
(§10) Gas flow rate: • Nebulizer gas flow rate: 3.0 L/min • Drying gas flow rate: 10.0 L/min • Heating gas flow rate: 10.0 L/min
(§11) Mode: multiple reaction monitoring (MRM)
The rate of increase or decrease in Table D is the value of detection intensity relative to 1 that is the detection intensity in a case where the time from blood collection to centrifugation is set to 15 minutes.

[2] = LC/MS of blood plasma sample: number of times of freezing and thawing (Table F); settings: for Rate of increase or decrease: detection intensity relative to 1 at 2 times; for Increase or decrease: detection intensity
Procedure: as §1, §2, §3, §4, §5, §6, §7, §8, §9, §10, §11
The rate of increase or decrease in Table F is the value of detection intensity relative to 1 that is the detection intensity in a case where the number of times of freezing and thawing is set to 2 times.

[3] = LC/MS of serum sample: number of times of freezing and thawing (Table M); parameters: key to Rate of increase or decrease: detection intensity relative to 1 at 2 freeze-thaw cycles; settings: for Number of times when compound is affected / Increase or decrease: serum sample, LC/MS; for Number of times when compound is affected: detection intensity changed by 30% or more vs 2 times of freezing and thawing; for Increase or decrease: detection intensity vs 2 times of freezing and thawing
Summary of the method: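 Values are detection intensities relative to serum thawed twice, versus 4, 6 or 10 freeze-thaw cycles. Serum came from blood spun at room temperature, 3500 rpm for 5 minutes. Analysis: electrospray LC/MS in MRM mode, Discovery HS F5-3 column, 40° C, 0.1% formic acid in water and acetonitrile.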

[4] = LC/MS of serum sample: time from blood collection to centrifugation (Table J); settings: for Rate of increase or decrease: detection intensity relative to 1 at 15 minutes; for Increase or decrease / Time when compound is affected: serum sample, LC/MS; for Increase or decrease: detection intensity vs 15 minutes from blood collection to centrifugation; for Time when compound is affected: time from blood collection to centrifugation, detection intensity changed by 30% or more vs 15 minutes
Procedure: After standing, the blood sample was subjected to centrifugation under a condition of room temperature, 3500 rpm, and 5 minutes. […] After centrifugation, the blood-collecting vessel was left to stand at room temperature, and the serum was isolated during this time. Here, in order to investigate how the detection intensity of molecules contained in the sample was affected in cases where the time during which the blood-collecting vessel was left at room temperature was set to 1 hour and 6 hours as compared to that in a case where the time was set to 30 minutes, preparations were performed under the respective conditions of 30 minutes, 1 hour, and 6 hours. The obtained serum sample was frozen and stored. Here, in order to investigate how the detection intensity of molecules contained in the sample was affected in cases where freezing and thawing was performed 4 times, 6 times, and 10 times after freezing as compared to that in a case where freezing and thawing was performed 2 times after freezing, freezing and thawing was performed under the respective conditions of 2, 4, 6, and 10 times.
as §2, §3, §4, §5, §6, §7, §8, §9, §10, §11
The rate of increase or decrease in Table J is the value of detection intensity relative to 1 that is the detection intensity in a case where the time from blood collection to centrifugation is set to 15 minutes.

[5] = GC/MS of serum sample: time from blood collection to centrifugation (Table G); settings: blood collection to centrifugation
Summary of the method: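 Values express detection intensity as a ratio to the sample centrifuged 15 minutes after blood collection (taken as 1). Serum was derivatized by methoxymation and trimethylsilylation, then analysed by electron-ionization GC/MS using multiple reaction monitoring on a BPX5 column ramped from 60 to 330° C.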

[6] = GC/MS of serum sample: time from centrifugation to isolation (Table H); parameters: key to Rate of increase or decrease / Rate of increase or decrease (first value, increase): detection intensity relative to 1 at 30 min centrifugation-to-isolation
Summary of the method: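 Values are GC/MS (EI, MRM) detection intensities of methoxymated/trimethylsilylated serum, normalised to 1 for the 30-min sample. Serum was isolated 30 min, 1 h or 6 h after room-temperature centrifugation (3500 rpm, 5 min) of blood.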

[7] = GC/MS of serum sample: number of times of freezing and thawing (Table I); parameters: key to Rate of increase or decrease / Rate of increase or decrease (first value, increase): detection intensity relative to 2 freeze-thaw cycles = 1; settings: serum, GC/MS
Summary of the method: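 Detection intensities are ratios to the value after two freeze–thaw cycles, which is set as 1, compared against 4, 6 and 10 cycles. Analysis used methoxymation and trimethylsilylation derivatization, then GC/MS with EI ionization and multiple reaction monitoring on a BPX5 column. Serum came from blood held at room temperature and spun at 3500 rpm for 5 min.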

[8] = freezing and thawing 6 times vs 2 times
[9] = 4 times of freezing and thawing, detection intensity relative to 1 at 2 times
[10] = freezing and thawing 10 times vs 2 times
[11] = after 12 hours from blood collection to centrifugation
[12] = 6 times of freezing and thawing, detection intensity relative to 1 at 2 times
[13] = freezing and thawing 4 times vs 2 times

Row | SMILES | Increase or decrease [1] | Rate of increase or decrease (second value, decrease) [1] | Rate of increase or decrease (first value, increase) [1] | Number of times when compound is affected [3] [times] | Increase or decrease [3] | Rate of increase or decrease ([2]; freezing and thawing 10 times) | Increase or decrease [2, 10] | Increase or decrease [4] | Time when compound is affected [4] | Rate of increase or decrease [3, 12] | further results
1 | Nc1ccccc1C(=O)CC(N)C(=O)O (centres unmarked) [Kynurenine] | Different from individual | 0.66 | 1.85 | 4 | Decrease | – | – | – | – | – | Rate of increase or decrease ([2]; freezing and thawing 6 times): 1.37; Increase or decrease [2, 8]: Increase; Rate of increase or decrease [3, 9]: 0.67
2 | C[N+](C)(C)CC(O)CC(=O)[O-] (centres unmarked) [Carnitine] | Different from individual | 0.64 | 1.57 | 6 | Decrease | – | – | – | – | 0.67 | Rate of increase or decrease ([2]; freezing and thawing 6 times): 1.30; Increase or decrease [2, 8]: Increase
3 | CN=C(NC)NCCC[C@H](N)C(=O)O [Symmetric dimethylarginine] | Different from individual | 0.68 | 1.78 | 6 | Decrease | 1.31 | Increase | – | – | 0.55 | –
4 | N[C@@H](Cc1c[nH]cn1)C(=O)O [Histidine] | – | – | – | 6 | Decrease | 1.36 | Increase | Increase | After 12 hours | 0.61 | Rate of increase or decrease [4, 11]: 1.46
5 | N[C@@H](CCSC[C@H](N)C(=O)O)C(=O)O [Cystathionine] | Increase | – | – | – | – | – | – | – | – | – | Rate of increase or decrease [1]: 1.44; Rate of increase or decrease ([2]; freezing and thawing 4 times): 1.52; Increase or decrease [2, 13]: Increase
6 | N[C@@H](CCC(=O)O)C(=O)O [Glutamic acid] | – | – | – | 10 | Decrease | 5.21 | Increase | Increase | After 4 hours | – | Rate of increase or decrease ([4]; after 4 hours from blood collection to centrifugation): 3.09; Rate of increase or decrease ([3]; 10 times of freezing and thawing, detection intensity relative to 1 at 2 times): 0.63
7 | O=C(O)[C@@H]1CC(O)CN1 (some centres unmarked) [4-Hydroxyproline] | Different from individual | 0.69 | 1.33 | 6 | Decrease | 1.34 | Increase | – | – | 0.66 | Rate of increase or decrease ([5]; detection intensity relative to 1 at 15 minutes, after 12 hours): 1.44; Increase or decrease ([5]; detection intensity, after 12 hours vs 15 minutes): Increase; Rate of increase or decrease ([6]; detection intensity relative to 1 at 30 minutes, after 1 hour): 1.33; Increase or decrease ([6]; detection intensity, after 1 hour vs 30 minutes): Increase; Rate of increase or decrease ([7]; detection intensity relative to 1 at 2 times, freezing and thawing 4 times): 1.40; Increase or decrease ([7]; detection intensity, freezing and thawing 4 times vs 2 times): Increase
8 | NC(=O)NCCC[C@H](N)C(=O)O [Citrulline] | Decrease | – | – | 6 | Decrease | 1.33 | Increase | – | – | 0.62 | Rate of increase or decrease [1]: 0.68

More lines, main results first:

Row | Increase or decrease [1] | Rate of increase or decrease (second value, decrease) [1] | Rate of increase or decrease (first value, increase) [1] | Number of times when compound is affected [3] [times] | Increase or decrease [3] | Rate of increase or decrease ([2]; freezing and thawing 10 times) | Increase or decrease [2, 10] | Increase or decrease [4] | Time when compound is affected [4] | Rate of increase or decrease [3, 12] | SMILES | further results
9 | Different from individual | 0.64 | 1.41 | 6 | Different from individual | 1.34 | Increase | – | – | – | C[C@H](N)C(=O)O [Alanine] | Rate of increase or decrease ([3]; 6 times of freezing and thawing, relative to 1 at 2 times, different from individual to individual, second value (decrease)): 0.63
10 | – | – | – | 6 | Decrease | 1.38 | Increase | Increase | After 12 hours | 0.66 | NC(=O)C[C@H](N)C(=O)O [Asparagine] | Rate of increase or decrease [4, 11]: 1.40
11 | – | – | – | 6 | Decrease | – | Increase | Increase | After 12 hours | 0.69 | NCC(=O)O [Glycine] | Rate of increase or decrease [4, 11]: 1.50
12 | Different from individual | 0.66 | 1.67 | 4 | Decrease | – | – | – | – | – | CN(CC(=O)O)C(=N)N [Creatine] | Rate of increase or decrease ([2]; freezing and thawing 4 times): 1.39; Increase or decrease [2, 13]: Increase; Rate of increase or decrease [3, 9]: 0.63
13 | – | – | – | 6 | Decrease | 1.37 | Increase | – | – | 1.30 | N[C@@H](CCS)C(=O)O [Homocysteine] | –
